According to article PMC5917001, “Counter-ion effect on antistaphylococcal activity and cytotoxicity of selected antimicrobial peptides” (Amino Acids, 2018):
Where no end group is shown, it is not given here.

Legend:
S. aureus 001N (MRSA) = assay type: cell-based, Staphylococcus aureus; conditions: clinical strain, broth microdilution, 0.5 × 10^5 CFU/mL, 18 h, 37 °C, at least triplicate
Protocol: (§1) Microbiological assays were performed using reference and clinical strains of Staphylococcus aureus. Minimal inhibitory concentrations (MIC) were determined by broth microdilution method on 96-well polystyrene plates according to Clinical and Laboratory Standards Institute (CLSI) recommendations [Clinical and Laboratory Standards Institute (CLSI) [2012]]. For this purpose, the initial inoculums of 0.5 × 10^5 CFU/mL of bacteria were exposed to a range of concentrations of the peptides (0.5–256 µg/mL). All plates were incubated for 18 h at 37 °C. MIC was taken as the lowest concentration of the compound at which the growth of bacteria was not observed. Reference strains of S. aureus: ATCC 6538, ATCC 6538/P, ATCC 9144, ATCC 12598, and ATCC 25923 were obtained from the Polish Collection of Microorganisms (PCM, Polish Academy of Sciences, Wrocław), whereas 24 clinical strains were isolated from the patients of the Clinic of Dermatology, Venereology and Allergology (Medical University of Gdańsk). Nine strains were characterized as methicillin-resistant (MRSA). Preliminary identification and detection was conducted on the ChromID MRSA/ChromID S. aureus biplate (bioMérieux) for the simultaneous detection of S. aureus and methicillin-resistant S. aureus (MRSA). All experiments were conducted at least in triplicate.

S. aureus 001S (MRSA) = assay type: cell-based, Staphylococcus aureus; conditions: clinical strain, broth microdilution, 0.5 × 10^5 CFU/mL, 18 h, 37 °C, at least triplicate
Protocol: as §1

S. aureus 002N = assay type: cell-based, Staphylococcus aureus; conditions: clinical strain, broth microdilution, 0.5 × 10^5 CFU/mL, 18 h, 37 °C, at least triplicate
Protocol: as §1

S. aureus 002S = assay type: cell-based, Staphylococcus aureus; conditions: clinical strain, broth microdilution, 0.5 × 10^5 CFU/mL, 18 h, 37 °C, at least triplicate
Protocol: as §1

S. aureus 004N (MRSA) = assay type: cell-based, Staphylococcus aureus; conditions: clinical strain, broth microdilution, 0.5 × 10^5 CFU/mL, 18 h, 37 °C, at least triplicate
Protocol: as §1

S. aureus 005S = assay type: cell-based, Staphylococcus aureus; conditions: clinical strain, broth microdilution, 0.5 × 10^5 CFU/mL, 18 h, 37 °C, at least triplicate
Protocol: as §1

S. aureus 013S = assay type: cell-based, Staphylococcus aureus; conditions: clinical strain, broth microdilution, 0.5 × 10^5 CFU/mL, 18 h, 37 °C, at least triplicate
Protocol: as §1

S. aureus 015N (MRSA) = assay type: cell-based, Staphylococcus aureus; conditions: clinical strain, broth microdilution, 0.5 × 10^5 CFU/mL, 18 h, 37 °C, at least triplicate
Protocol: as §1

S. aureus 017N (MRSA) = assay type: cell-based, Staphylococcus aureus; conditions: clinical strain, broth microdilution, 0.5 × 10^5 CFU/mL, 18 h, 37 °C, at least triplicate
Protocol: as §1

S. aureus 017S (MRSA) = assay type: cell-based, Staphylococcus aureus; conditions: clinical strain, broth microdilution, 0.5 × 10^5 CFU/mL, 18 h, 37 °C, at least triplicate
Protocol: as §1

S. aureus 024N (MRSA) = assay type: cell-based, Staphylococcus aureus; conditions: clinical strain, broth microdilution, 0.5 × 10^5 CFU/mL, 18 h, 37 °C, at least triplicate
Protocol: as §1

S. aureus 030N = assay type: cell-based, Staphylococcus aureus; conditions: clinical strain, broth microdilution, 0.5 × 10^5 CFU/mL, 18 h, 37 °C, at least triplicate
Protocol: as §1

S. aureus 033N = assay type: cell-based, Staphylococcus aureus; conditions: clinical strain, broth microdilution, 0.5 × 10^5 CFU/mL, 18 h, 37 °C, at least triplicate
Protocol: as §1

S. aureus 039N = assay type: cell-based, Staphylococcus aureus; conditions: clinical strain, broth microdilution, 0.5 × 10^5 CFU/mL, 18 h, 37 °C, at least triplicate
Protocol: as §1

S. aureus 043SC (MRSA) = assay type: cell-based, Staphylococcus aureus; conditions: clinical strain, broth microdilution, 0.5 × 10^5 CFU/mL, 18 h, 37 °C, at least triplicate
Protocol: as §1

S. aureus 045N = assay type: cell-based, Staphylococcus aureus; conditions: clinical strain, broth microdilution, 0.5 × 10^5 CFU/mL, 18 h, 37 °C, at least triplicate
Protocol: as §1

S. aureus 048S = assay type: cell-based, Staphylococcus aureus; conditions: clinical strain, broth microdilution, 0.5 × 10^5 CFU/mL, 18 h, 37 °C, at least triplicate
Protocol: as §1

S. aureus 051N (MRSA) = assay type: cell-based, Staphylococcus aureus; conditions: clinical strain, broth microdilution, 0.5 × 10^5 CFU/mL, 18 h, 37 °C, at least triplicate
Protocol: as §1

S. aureus 051S = assay type: cell-based, Staphylococcus aureus; conditions: clinical strain, broth microdilution, 0.5 × 10^5 CFU/mL, 18 h, 37 °C, at least triplicate
Protocol: as §1

S. aureus 053N = assay type: cell-based, Staphylococcus aureus; conditions: clinical strain, broth microdilution, 0.5 × 10^5 CFU/mL, 18 h, 37 °C, at least triplicate
Protocol: as §1

S. aureus 060S = assay type: cell-based, Staphylococcus aureus; conditions: clinical strain, broth microdilution, 0.5 × 10^5 CFU/mL, 18 h, 37 °C, at least triplicate
Protocol: as §1

S. aureus ATCC 12598 = assay type: cell-based, Staphylococcus aureus; conditions: ATCC 12598, reference strain; broth microdilution, 0.5 × 10^5 CFU/mL, 18 h, 37 °C, at least triplicate
Protocol: as §1

S. aureus ATCC 25923 = assay type: cell-based, Staphylococcus aureus; conditions: ATCC 25923, reference strain; broth microdilution, 0.5 × 10^5 CFU/mL, 18 h, 37 °C, at least triplicate
Protocol: as §1

S. aureus ATCC 6538/P = assay type: cell-based, Staphylococcus aureus; conditions: reference strain, broth microdilution, 0.5 × 10^5 CFU/mL, 18 h, 37 °C, at least triplicate
Protocol: as §1

S. aureus ATCC 6538 = assay type: cell-based, Staphylococcus aureus; conditions: ATCC 6538, reference strain; broth microdilution, 0.5 × 10^5 CFU/mL, 18 h, 37 °C, at least triplicate
Protocol: as §1

S. aureus ATCC 9144 = assay type: cell-based, Staphylococcus aureus; conditions: ATCC 9144, reference strain; broth microdilution, 0.5 × 10^5 CFU/mL, 18 h, 37 °C, at least triplicate
Protocol: as §1

S. aureus K19N = assay type: cell-based, Staphylococcus aureus; conditions: clinical strain, broth microdilution, 0.5 × 10^5 CFU/mL, 18 h, 37 °C, at least triplicate
Protocol: as §1

S. aureus K46N = assay type: cell-based, Staphylococcus aureus; conditions: clinical strain, broth microdilution, 0.5 × 10^5 CFU/mL, 18 h, 37 °C, at least triplicate
Protocol: as §1

S. aureus K50S = assay type: cell-based, Staphylococcus aureus; conditions: clinical strain, broth microdilution, 0.5 × 10^5 CFU/mL, 18 h, 37 °C, at least triplicate
Protocol: as §1

[1] = tested on: S. aureus (29): reference (5) and clinical (24) strains; conditions: for Mean value of MIC: mean over 29 S. aureus strains (Table 5); for Mean MIC values: mean over 29 S. aureus strains, as repeated in Table 6
Protocol: as §1, with “For this purpose, the initial inoculums of 0.5 × 10^5 CFU/mL of bacteria were exposed to a range of concentrations of the peptides (0.5–256 µg/mL).” left out, “MIC was taken as the lowest concentration of the compound at which the growth of bacteria was not observed.” left out
To asses an overall activity of peptides, the mean MIC values were calculated.

Substance	MIC (S. aureus 001N (MRSA))	MIC (S. aureus 001S (MRSA))	MIC (S. aureus 002N)	MIC (S. aureus 002S)	MIC (S. aureus 004N (MRSA))	MIC (S. aureus 005S)	MIC (S. aureus 013S)	MIC (S. aureus 015N (MRSA))	MIC (S. aureus 017N (MRSA))	MIC (S. aureus 017S (MRSA))	MIC (S. aureus 024N (MRSA))	MIC (S. aureus 030N)	MIC (S. aureus 033N)	MIC (S. aureus 039N)	MIC (S. aureus 043SC (MRSA))	MIC (S. aureus 045N)	MIC (S. aureus 048S)	MIC (S. aureus 051N (MRSA))	MIC (S. aureus 051S)	MIC (S. aureus 053N)	other results
GLFDVIKKVASVIGGL-NH2 [Citropin 1.1 TFA^−]	16 µg/mL	16 µg/mL	16 µg/mL	16 µg/mL	16 µg/mL	2 µg/mL	2 µg/mL	16 µg/mL	8 µg/mL	4 µg/mL	2 µg/mL	16 µg/mL	16 µg/mL	16 µg/mL	8 µg/mL	16 µg/mL	16 µg/mL	8 µg/mL	4 µg/mL	16 µg/mL	MIC (S. aureus 060S): 2 µg/mL; MIC (S. aureus ATCC 12598): 16 µg/mL; MIC (S. aureus ATCC 25923): 32 µg/mL; MIC (S. aureus ATCC 6538/P): 16 µg/mL; MIC (S. aureus ATCC 6538): 16 µg/mL; MIC (S. aureus ATCC 9144): 32 µg/mL; MIC (S. aureus K19N): 16 µg/mL; MIC (S. aureus K46N): 16 µg/mL; MIC (S. aureus K50S): 2 µg/mL; Mean value of MIC [1]: 13.0 µg/mL; Mean MIC values [1]: 13.0 µg/mL
KWKLFKKIGAVLKVL-NH2 [CAMEL AcO^−]	2 µg/mL	4 µg/mL	4 µg/mL	4 µg/mL	4 µg/mL	≤ (≤ alone stands for MIC ≤ 0.25 µg/mL)	≤ (≤ alone stands for MIC ≤ 0.25 µg/mL)	4 µg/mL	2 µg/mL	2 µg/mL	≤ (≤ alone stands for MIC ≤ 0.25 µg/mL)	4 µg/mL	4 µg/mL	4 µg/mL	4 µg/mL	4 µg/mL	4 µg/mL	2 µg/mL	2 µg/mL	4 µg/mL	MIC (S. aureus 060S): 1 µg/mL; MIC (S. aureus ATCC 12598): 2 µg/mL; MIC (S. aureus ATCC 25923): 8 µg/mL; MIC (S. aureus ATCC 6538/P): 1 µg/mL; MIC (S. aureus ATCC 6538): ≤ (≤ alone stands for MIC ≤ 0.25 µg/mL); MIC (S. aureus ATCC 9144): 2 µg/mL; MIC (S. aureus K19N): 2 µg/mL; MIC (S. aureus K46N): 4 µg/mL; MIC (S. aureus K50S): 1 µg/mL; Mean value of MIC [1]: ≤ 2.8 µg/mL; Mean MIC values [1]: ≤ 2.8 µg/mL
KWKLFKKIGAVLKVL-NH2 [CAMEL Cl^−]	2 µg/mL	2 µg/mL	≤ (≤ alone stands for MIC ≤ 0.25 µg/mL)	1 µg/mL	2 µg/mL	≤ (≤ alone stands for MIC ≤ 0.25 µg/mL)	≤ (≤ alone stands for MIC ≤ 0.25 µg/mL)	2 µg/mL	2 µg/mL	2 µg/mL	≤ (≤ alone stands for MIC ≤ 0.25 µg/mL)	4 µg/mL	4 µg/mL	4 µg/mL	4 µg/mL	4 µg/mL	4 µg/mL	2 µg/mL	2 µg/mL	4 µg/mL	MIC (S. aureus 060S): 1 µg/mL; MIC (S. aureus ATCC 12598): 1 µg/mL; MIC (S. aureus ATCC 25923): 2 µg/mL; MIC (S. aureus ATCC 6538/P): 1 µg/mL; MIC (S. aureus ATCC 6538): ≤ (≤ alone stands for MIC ≤ 0.25 µg/mL); MIC (S. aureus ATCC 9144): 1 µg/mL; MIC (S. aureus K19N): 1 µg/mL; MIC (S. aureus K46N): 4 µg/mL; MIC (S. aureus K50S): 1 µg/mL; Mean value of MIC [1]: ≤ 2.0 µg/mL; Mean MIC values [1]: ≤ 2.0 µg/mL
